Experiments:
Bacillus cereus = assay: Antimicrobial activity against Bacillus cereus ATCC 21772 by broth macrodilution method; assay type: functional
Candida albicans = assay: Antifungal activity against Candida albicans SC5314 by broth macrodilution method; assay type: functional

MIC (Bacillus cereus)	MIC (Candida albicans)	Structure (SMILES)
> 50 µg/mL		C=C1C[C@H](O)[C@H](Br)C(C)(C)[C@@]12CCC(C)=C(Cl)C2 [ELATOL]
> 50 µg/mL	> 50 µg/mL	C=C1C[C@@H](O)[C@@H](Br)C(C)(C)[C@]12CC[C@@](C)(Br)[C@H](Cl)C2 [OBTUSOL]
